Test results from patent US10626092B2, “Polymorphic forms of 3-[(2-butyl-1-(2-diethylamino-ethyl)-1H-benzoimidazol-5-yl]-N-hydroxy-acrylamide and uses thereof” (MEI PHARMA, INC., priority 2016, dated 2020).
Structures can show the parent of a compound that is named as a salt.

Columns and labels:
Type in all cases: physicochemical
[1] = Physical stability under accelerated aging conditions (40° C./70% RH), physical form re-determined by HT-XRPD; details: physical stability under accelerated aging conditions (40° C./70% RH) for 48 hours
Method: Solids were analyzed for their physical stability under accelerated aging conditions (40° C./70% RH) for 48 hours. After the exposure, the physical form was determined again by HT-XRPD analysis. The physico-chemical characterization of the forms was done by TGMS analysis to determine the solvation state of the form and thermal events and by DSC analysis to confirm the thermal events observed in the SDTA signal of the TGA. (See Examples for details.)
Suspensions of 3-[2-butyl-1-(2-diethylamino-ethyl)-1H-benzoimidazol-5-yl]-N-hydroxy-acrylamide dihydrochloride monohydrate (Form 1) and 2.5 hydrate (Form 3) were prepared in 12 process relevant solvent systems. The suspensions were cycled between 5° C. and 50° C. followed by aging at 25° C. for 72 hours. […] Upon completion of the incubation time, the solids were collected, dried under ambient conditions and dried under deep vacuum before being analyzed by HT-XRPD. All the measured solids were exposed to accelerated ageing conditions (2 days at 40° C./70% RH) followed by re-analysis by HT-XRPD.
Long-term slurry conversion experiments were carried out by preparing suspensions of 3-[2-butyl-1-(2-diethylamino-ethyl)-1H-benzoimidazol-5-yl]-N-hydroxy-acrylamide dihydrochloride 2.5 hydrate (Form 3) and monohydrate (Form 1) in 12 different solvents and solvent mixtures. Approximately 30 mg of the specific form was dosed in a standard HPLC vial and aliquots of 100 μL of solvent until a suspension was formed. The suspensions were stirred for 2 weeks at room temperature and for 1 week at 50° C. The solids were isolated from the mother liquor and analyzed by HT-XRPD after mild drying under ambient conditions (ambient) and after thorough drying under vacuum (vacuum). All the solids were exposed to accelerated ageing conditions (2 days at 40° C./70% RH) and re-analyzed by HT-XRPD.
(§1) The competitive slurry experiments were performed in ethanol/water mixtures and methanol/water mixtures within a water activity range of 0-0.2. Approximately 50 mg of each pracinostat dihydrochloride solid form 2.5 hydrate and monohydrate were solid dosed in 1.8 mL HPLC vials. Aliquots of 100 μL of the different water mixtures were added until about half of the amount of solid was in solution. Subsequently, the vials were stirred for one week at 5° C., 21° C. and 50° C. Upon completion of the equilibration time, the solids were separated from the liquids by centrifugation. The solids were dried under ambient conditions (ambient) and dried under vacuum (vacuum) before HT-XRPD analysis. All solid samples were exposed to accelerated gaining conditions (40° C. and 70% RH) for two days (AAC). The water content in the liquid phase was determined Karl Fischer analysis.

[2] = Long-term slurry conversion experiments; details: drying the solids under vacuum; converts to 2.5 hydrate Form 3
Method: Approximately 30 mg of the specific form was dosed in a standard HPLC vial and aliquots of 100 μL of solvent until a suspension was formed. […] The solids were isolated from the mother liquor and analyzed by HT-XRPD after mild drying under ambient conditions (ambient) and after thorough drying under vacuum (vacuum). All the solids were exposed to accelerated ageing conditions (2 days at 40° C./70% RH) and re-analyzed by HT-XRPD.

[3] = Moisture sorption study (DVS analysis); details: for solid form recovered after DVS: HT-XRPD
Method: A moisture sorption study was performed to investigate the physical stability of 3-[2-butyl-1-(2-diethylamino-ethyl)-1H-benzoimidazol-5-yl]-N-hydroxy-acrylamide dihydrochloride 2.5 hydrate upon exposure to several relative humidity profiles. HT-XRPD analyses were performed on the solid material obtained after the DVS analyses. The analytical method is described herein.
Differences in hygroscopicity (moisture uptake) of the various forms of a solid material provided a measure of their relative stability at increasing relative humidity. Moisture sorption isotherms of small samples were obtained using a DVS-1 system from Surface Measurement Systems (London, UK); this instrument is suitable for use with as little as a few milligrams of sample, with an accuracy of 0.1 μg. Several humidity profile were applied as described in each individual experiment. Steps consisted of 10% RH. Weight equilibration per step was set with a minimum holding time of 1 hour (10% relative humidity step). At the end of the DVS experiments, the recovered solid material was measured by HT-XRPD.

[4] = Variable temperature XRPD; details: 25° C. to 130° C.
Method: To investigate the phase interconversions upon temperature exposure, a variable temperature XRPD analysis on 3-[2-butyl-1-(2-diethylamino-ethyl)-1H-benzoimidazol-5-yl]-N-hydroxy-acrylamide dihydrochloride 2.5 hydrate was performed. The experiment was run between 25° C. to 130° C. with cooling back to 25° C. at the end. […] After reaching a temperature of 130° C., the material was cooled back to 25° C.
A variable temperature XRPD experiment with 3-[2-butyl-1-(2-diethylamino-ethyl)-1H-benzoimidazol-5-yl]-N-hydroxy-acrylamide dihydrochloride monohydrate was conducted to investigate the solid form conversion that occurred upon heating. The experiment was run between 25° C. to 143° C. followed by cooling to 25° C., reheating to 155° C. and then cooling again to 25° C. (see FIG. 19).
For variable humidity and temperature experiments the ANSYCO HT chamber was used, installed within the D8 Advance system diffractometer (Bruker) designed with Brag-Brentano geometry and equipped with LynxEye solid state detector. The radiation used for collecting the data was CuKα1 (λ=1.54056 Å) monochromatized by germanium crystal. The material was placed on a fixed sample holder that was mounted inside the chamber.
VT-XRPD: The temperature variation rate was 10° C./min and the equilibration time, prior to starting the data collection at each temperature, was 8 min. The patterns were collected in the range 4-41°2θ, with a step of 0.01573°2θ and measuring time per step of 1 sec. The data collection time, per temperature, was 40 min.

[5] = Desolvation studies: equilibration at 125° C. in high boiling point solvents; details: two days; for Form in Ambient AAC: then accelerated aging conditions
Method: Using solvent equilibration of hydrates in high boiling point solvents has been reported as a method to obtaining desolvated forms. […] The experiments were started with approximately 50 mg of material and 100 μL of solvent. After equilibration, the solids were isolated from the solutions by centrifugation. The solids were allowed to dry under ambient conditions before HT-XRPD analysis was performed. The wet solids were analyzed by HT-XRPD immediately to avoid hydration under ambient conditions or under vacuum.

[6] = Competitive slurry conversion (thermodynamic stability) of Form 1 and Form 3; details: ethanol/water, one week slurry
Method: as §1, with “Approximately 50 mg of each solid form were solid dosed in a standard HPLC vial followed by solvent addition. The competitive” for “The competitive”, “in solution. […] Upon completion” for “in solution. Subsequently, the vials were stirred for one week at 5° C., 21° C. and 50° C. Upon completion”

Thermocycling studies = test: Thermocycling studies
Method: The suspensions were cycled between 5° C. and 50° C. followed by aging at 25° C. for 72 hours. […] Upon completion of the incubation time, the solids were collected, dried under ambient conditions and dried under deep vacuum before being analyzed by HT-XRPD. All the measured solids were exposed to accelerated ageing conditions (2 days at 40° C./70% RH) followed by re-analysis by HT-XRPD.

[7] = Moisture sorption study (DVS analysis); details: DVS; hydrate
[8] = four sorption-desorption cycles 0-95-0% RH

CCCCc1nc2cc(/C=C/C(=O)NO)ccc2n1CCN(CC)CC [Form 2, 3-[2-butyl-1-(2-diethylamino-ethyl)-1H-benzoimidazol-5-yl]-N-hydroxy-acrylamide dihydrochloride trihydrate]
Stability ([1]; dihydrochloride trihydrate): Unstable | physical stability upon drying [2]: physically unstable

CCCCc1nc2cc(/C=C/C(=O)NO)ccc2n1CCN(CC)CC [Form 3, 3-[2-butyl-1-(2-diethylamino-ethyl)-1H-benzoimidazol-5-yl]-N-hydroxy-acrylamide dihydrochloride 2.5 hydrate]
Stability ([1]; hydrate): Stable | solid form recovered after DVS ([3]; 0% RH for 18 hours): converted to a new solid form designated Form 6 | hygroscopicity ([3]; DVS, hydrate): non-hygroscopic | gradual loss of water ([3]; constant 0% RH for 18 hours, in the first 5 hours): 8% | mass loss at 0% RH [3, 8]: about 2% | relative humidity below which the water is gradually lost [3, 8]: below 15 % RH | relative humidity values at which the form does not change [3, 8]: 25-95% | water loss between 5-0% RH ([3]; two sorption-desorption cycles 45-95-0-95-0-45% RH): about 2% | solid form recovered after DVS ([3]; two sorption-desorption cycles 45-95-0-95-0-45% RH, hydrate): 2.5 hydrate was recovered | temperature at which conversion to a new solid form was initially observed [4]: 60 °C | temperature at which conversion to the new solid form was completed [4]: 70 °C | temperature at which second conversion (to Form 5) was completed [4]: 110 °C | temperature at which second conversion (to Form 5) was observed [4]: 100 °C | Form in Ambient ([5]; Anisole): Mono | Form in Ambient AAC ([5]; Anisole): 2.5 | Form in Ambient ([5]; Cumene): Mono | Form in Ambient AAC ([5]; Cumene, hydrate): 2.5 + Mono | Form in Ambient ([5]; N-Methyl-2-pyrrolidone, hydrate): Mono | Form in Ambient AAC ([5]; N-Methyl-2-pyrrolidone): 2.5 | Form in Ambient ([5]; p-Xylene): Mono | Form in Ambient AAC ([5]; p-Xylene): 2.5 | water content of the solvent system at which the form is the most stable / obtained form ([6]; 5° C. (below ambient), hydrate): above 2% | water content of the solvent system at which the form is the most stable / obtained form ([6]; ambient conditions, hydrate): above 3% | solid form after thermocycling (Thermocycling studies; ethanol, absolute or extra dry, hydrate): converted to the monohydrate Form 1 | solid form after thermocycling (Thermocycling studies; methanol, no water present): converts to the monohydrate Form 1 | relative stability of the form (Thermocycling studies; thermocycling in ethanol/water mixtures): most stable form in a wide range of ethanol/water mixtures | relative stability of the form (Thermocycling studies; thermocycling in methanol/water mixtures): most stable form in a wide range of methanol/water mixtures | hygroscopicity [7]: not hygroscopic

CCCCc1nc2cc(/C=C/C(=O)NO)ccc2n1CCN(CC)CC [Form 4, 3-[2-butyl-1-(2-diethylamino-ethyl)-1H-benzoimidazol-5-yl]-N-hydroxy-acrylamide dihydrochloride 1.5 hydrate]
Stability ([1]; hydrate): Unstable

CCCCc1nc2cc(/C=C/C(=O)NO)ccc2n1CCN(CC)CC [Form 5, 3-[2-butyl-1-(2-diethylamino-ethyl)-1H-benzoimidazol-5-yl]-N-hydroxy-acrylamide dihydrochloride]
Stability ([1]; dihydrochloride): Unstable

CCCCc1nc2cc(/C=C/C(=O)NO)ccc2n1CCN(CC)CC [Form 9, 3-[2-butyl-1-(2-diethylamino-ethyl)-1H-benzoimidazol-5-yl]-N-hydroxy-acrylamide dihydrochloride anhydrous]
Stability [1]: Unstable | water content of the solvent system at which the form is the most stable form ([6]; 50° C. (elevated temperatures)): below 1.5% | water content of the solvent system at which the form is the most stable / obtained form ([6]; ambient conditions): below 2.5%

CCCCc1nc2cc(/C=C/C(=O)NO)ccc2n1CCN(CC)CC [Form 10, 3-[2-butyl-1-(2-diethylamino-ethyl)-1H-benzoimidazol-5-yl]-N-hydroxy-acrylamide dihydrochloride hemihydrate]
Stability ([1]; dihydrochloride hemihydrate): Unstable | physical stability under ambient conditions ([3]; form appearing at 0% RH, converts to 2.5 hydrate (Form 3)): physically unstable
